Measured values from patent US8815877B2, “Serine/threonine kinase inhibitors” (Genentech, Inc., priority 2011, dated 2014).

Tests used:
[1] = target: T1, human recombinant GST-PAK1-KD protein (Homo sapiens, UniProt Q13153); assay: GST-PAK1-KD (Kinase Domain) IC50 biochemical assay (microfluidic mobility shift); conditions: GST-PAK1-KD inhibition assay
T1 construct: residues #249-545 of human PAK1, UniProtKP/Swiss Q13153; made in house; host or cells: Sf9 insect cells (pAcGP67 baculovirus expression vector)
T1 sequence (Q13153 249-545): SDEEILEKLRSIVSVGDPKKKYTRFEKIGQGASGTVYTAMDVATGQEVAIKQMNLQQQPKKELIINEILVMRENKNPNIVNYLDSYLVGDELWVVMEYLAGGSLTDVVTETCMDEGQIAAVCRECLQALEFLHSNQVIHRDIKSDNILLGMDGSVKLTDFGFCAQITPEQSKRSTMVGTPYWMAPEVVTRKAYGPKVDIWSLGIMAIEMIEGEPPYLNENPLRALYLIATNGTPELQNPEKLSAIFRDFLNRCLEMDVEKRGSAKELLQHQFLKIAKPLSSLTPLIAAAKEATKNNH
Description: GST-PAK1-KD (Kinase Domain) IC50 Biochemical Assay Protocol
Activity of human recombinant GST-PAK1-KD protein was assessed in vitro assay by observing the phosphorylation of a fluorogenic peptide substrate.
The peptide substrate is a consensus sequence based on various PAK1 substrates reported in the scientific literature. […] Incubations were carried out at 22° C. in MatriCal MP101 384-well Metriplates™. […] Following the 30-minute incubation, the assay mixtures were quenched by the addition of 3 μL of 250 mM EDTA, and the substrate and phosphorylated product were separated by capillary electrophoresis and detected using LabChip® Caliper 3000 (Caliper Life Sciences).

[2] = system: MEK1 phosphorylation at S298; assay: Cellular PAK IC50 assay: MEK1 (S298) phosphorylation by HTRF in EBC1 cells; assay type: cell-based; conditions: Homo sapiens, EBC-1, 2 h treatment, media containing 0.1% FBS
Description: Cellular PAK IC50 Assay Protocol
Group I PAKs (PAK1-3) are activated upon binding to the Rho GTPases, Rac 1 and Cdc42. Activated group I PAKs phosphorylate MEK1 at Serine 298 (S298), one of the two sites in the catalytic domain that is important for stable association between Raf and MEK1 and subsequent MAPK activation. The inhibition of group I PAKs in EBC1 cells is assessed by detecting changes in the level of MEK1 phosphorylation at S298 using homogenous time-resolved fluorescence (HTRF). Inhibitory activity was estimated by treating 2×10^4 EBC1 cells for 2 h with PAK inhibitors in media containing 0.1% FBS. Following inhibitor treatment, cells were lysed with 25 μL of 1× cellular kinase lysis buffer (Cisbio) containing 1× cellular kinase blocking reagent (Cisbio). Cellular lysis was carried out at 4° C. for 2 h with constant shaking before lysate (16 μL) was transferred to white 384-well ProxiPlates™ (Perkin Elmer). Anti-total MEK1 antibody labeled with Europium cryptate donor (1 ng/well) (Cell Signaling Technologies catalog number 2352) and anti-phospho MEK1 (S298) antibody labeled with d2 acceptor (Cell Signaling Technologies catalog number 9128) (10 ng/well) were prepared in 1× detection buffer (CisBio) and added to each well of the assay plate and allowed to incubate at RT overnight. The following day the fluorescence emission from each well was measured in EnVision® (Perkin Elmer) at an excitation of 330 nm and dual emission wavelengths of 615 nm and 665 nm. The signal in each well at 665 nm was multiplied by 10,000 and divided by the signal in the same well at 615 nm to obtain a ratio. Ratio values ([665*10,000]÷615) were plotted as a function of the concentration of compound to determine IC50 values.

Compound	Ki [1] [µM]	IC50 [2] [µM]
C[C@@H](c1ccc2[nH]ccc2n1)N(C)c1nccc(Nc2cc(C3CC3)[nH]n2)n1 [Compound I-18, (S)—N^2-(1-(1H-pyrrolo[3,2-b]pyridin-5-yl)ethyl)-N^4-(5-cyclopropyl-1H-pyrazol-3-yl)-N^2-methylpyrimidine-2,4-diamine]	0.024	0.221
CN(Cc1ccc2[nH]ccc2n1)c1nccc(Nc2cc(C3CC3)[nH]n2)n1 [Compound I-10, N^2-((1H-pyrrolo[3,2-b]pyridin-5-yl)methyl)-N^4-(5-cyclopropyl-1H-pyrazol-3-yl)-N^2-methylpyrimidine-2,4-diamine]	0.067	1.1
C[C@@H](c1ccc2[nH]ccc2n1)N(C)c1nccc(Nc2cc([C@@H]3C[C@@H]3F)[nH]n2)n1 [Compound I-24, N^2-((S)-1-(1H-pyrrolo[3,2-b]pyridin-5-yl)ethyl)-N^4-(5-((1S,2S)-2-fluorocyclopropyl)-1H-pyrazol-3-yl)-N^2-methylpyrimidine-2,4-diamine]	0.052	0.191
C[C@H](Nc1nccc(Nc2cc(C3CC3)[nH]n2)n1)c1ncc2[nH]ccc2n1 [Compound I-35, (S)—N^2-(1-(5H-pyrrolo[3,2-d]pyrimidin-2-yl)ethyl)-N^4-(5-cyclopropyl-1H-pyrazol-3-yl)pyrimidine-2,4-diamine]	0.003	–
C[C@H](Nc1nccc(Nc2cc(C3CC3)[nH]n2)n1)c1cc2cc[nH]c2cn1 [Compound I-7, (S)—N^2-(1-(1H-pyrrolo[2,3-c]pyridin-5-yl)ethyl)-N^4-(5-cyclopropyl-1H-pyrazol-3-yl)pyrimidine-2,4-diamine]	0.005	0.0684
C[C@H](Nc1nccc(Nc2cc(C3CC(F)(F)C3)[nH]n2)n1)c1ccc2[nH]ccc2n1 [Compound I-16, (S)—N^2-(1-(1H-pyrrolo[3,2-b]pyridin-5-yl)ethyl)-N^4-(5-(3,3-difluorocyclobutyl)-1H-pyrazol-3-yl)pyrimidine-2,4-diamine]	0.022	0.0726
c1cc(Nc2cc(C3CC3)[nH]n2)nc(NCc2cncc3[nH]cnc23)n1 [Compound I-33, N^2-((3H-imidazo[4,5-c]pyridin-7-yl)methyl)-N^4-(5-cyclopropyl-1H-pyrazol-3-yl)pyrimidine-2,4-diamine]	0.494	–

Continued by falling Ki [1], values first:

Ki [1] [µM]	IC50 [2] [µM]	Compound
0.072	0.709	c1cc(Nc2cc(C3CC3)[nH]n2)nc(NCc2cnc3[nH]ccc3c2)n1 [Compound I-6, N^2-((1H-Pyrrolo[2,3-b]pyridin-5-yl)methyl)-N^4-(5-cyclopropyl-1H-pyrazol-3-yl)pyrimidine-2,4-diamine]
0.06	0.325	C[C@H](Nc1nccc(Nc2cc(C3CC3)[nH]n2)n1)c1nccc2[nH]ccc12 [Compound I-4, N^2-((S)-1-(1H-pyrrolo[3,2-c]pyridin-4-yl)ethyl)-N^4-(5-cyclopropyl-1H-pyrazol-3-yl)pyrimidine-2,4-diamine]
0.016	0.0455	C[C@H](Nc1nccc(Nc2cc(C3CC3)[nH]n2)n1)c1ccc2[nH]ccc2n1 [Compound I-12, (S)—N^2-(1-(1H-pyrrolo[3,2-b]pyridin-5-yl)ethyl)-N^4-(5-cyclopropyl-1H-pyrazol-3-yl)pyrimidine-2,4-diamine]
0.008	0.0531	C[C@@H](c1ccc2[nH]ccc2n1)N(C)c1nccc(Nc2cc([C@H]3C[C@@H]3F)[nH]n2)n1 [Compound I-28, N^2—((S)-1-(1H-pyrrolo[3,2-b]pyridin-5-yl)ethyl)-N^4-(5-((1R,2S)-2-fluorocyclopropyl)-1H-pyrazol-3-yl)-N^2-methylpyrimidine-2,4-diamine]
